Measured values from PubChem BioAssay AID1963967 (Molecular Pharmacology Branch, DTP, NCI, 2024).

Test system: 855422-203-R-J1-PDC spheroids with HUVEC/MSC, viability
Experiment: Anticancer human tumor 855422-203-R-J1-PDC patient-derived bladder carcinoma cell line growth inhibition [PI3K]
Details: for IC50: curve of first compound; for viability, T/C: stronger effect = lower value
How it was run: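 Stroma-containing spheroids: tumor line, pooled-donor HUVEC, hMSC. Treatments: targeted agents with PI3K inhibitors. Dosing: clinically relevant, half-log spacing, 10 microM ceiling without known Cmax. Read-out: cell viability.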

[1] = second compound 0.00316 µM, first compound 0.0316 µM
[2] = second compound 0.00316 µM, first compound 0.1 µM
[3] = second compound 0.00316 µM, first compound 0.316 µM
[4] = second compound 0.00316 µM, first compound 1 µM
[5] = second compound 0.00316 µM, first compound 3.16 µM
[6] = second compound 0.00316 µM, first compound 10 µM
[7] = second compound 0.01 µM, first compound 0.0316 µM
[8] = second compound 0.01 µM, first compound 0.1 µM
[9] = second compound 0.01 µM, first compound 0.316 µM
[10] = second compound 0.01 µM, first compound 1 µM
[11] = second compound 0.01 µM, first compound 3.16 µM
[12] = second compound 0.01 µM, first compound 10 µM
[13] = second compound 0.0316 µM, first compound 0.0316 µM
[14] = second compound 0.0316 µM, first compound 0.1 µM
[15] = second compound 0.0316 µM, first compound 0.316 µM
[16] = second compound 0.0316 µM, first compound 1 µM
[17] = second compound 0.0316 µM, first compound 3.16 µM
[18] = second compound 0.0316 µM, first compound 10 µM
[19] = second compound 0.1 µM, first compound 0.0316 µM
[20] = second compound 0.1 µM, first compound 0.1 µM
[21] = second compound 0.1 µM, first compound 0.316 µM
[22] = second compound 0.1 µM, first compound 1 µM
[23] = second compound 0.1 µM, first compound 3.16 µM
[24] = second compound 0.1 µM, first compound 10 µM
[25] = second compound 0.316 µM, first compound 0.0316 µM
[26] = second compound 0.316 µM, first compound 0.1 µM
[27] = second compound 0.316 µM, first compound 0.316 µM
[28] = second compound 0.316 µM, first compound 1 µM
[29] = second compound 0.316 µM, first compound 3.16 µM
[30] = second compound 0.316 µM, first compound 10 µM
[31] = second compound 1 µM, first compound 0.0316 µM
[32] = second compound 1 µM, first compound 0.1 µM
[33] = second compound 1 µM, first compound 0.316 µM
[34] = second compound 1 µM, first compound 1 µM
[35] = second compound 1 µM, first compound 3.16 µM
[36] = second compound 1 µM, first compound 10 µM
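Further: agents incubated with spheroids for one week before read-out.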
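Wherever viability, T/C is given: 100% = DMSO vehicle-treated control wells.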

Compound `CC(C)NCC(C(=O)N1CCN(c2ncnc3c2C(C)CC3O)CC1)c1ccc(Cl)cc1` (stereo unspecified) + COc1c(OCCCN2CCOCC2)ccc2c3n(c(=NC(=O)c4cnc(N)nc4)nc12)CCN3 has an IC50 (second compound 0.00316 µM) of 1130 nM, an IC50 (second compound 0.01 µM) of 1920 nM and an IC50 (second compound 0.0316 µM) of 969 nM. For the same compound, the IC50 (second compound 0.1 µM) was under 31.6 nM, the IC50 (second compound 0.316 µM) was under 31.6 nM and the IC50 (second compound 1 µM) was under 31.6 nM. For the same compound, the viability, T/C [1] was 108%, the viability, T/C [2] was 62% and the viability, T/C [3] was 71.9%. For the same compound, the viability, T/C [4] was 57.4%, the viability, T/C [5] was 41% and the viability, T/C [6] was 18.8%. The viability, T/C [7] was 79%, the viability, T/C [8] was 73.3% and the viability, T/C [9] was 67%. The viability, T/C [10] was 62%, the viability, T/C [11] was 42% and the viability, T/C [12] was 15.5%. For the same compound, the viability, T/C [13] was 63.3%, the viability, T/C [14] was 64.3% and the viability, T/C [15] was 55.6%. The viability, T/C [16] was 51.3%, the viability, T/C [17] was 23% and the viability, T/C [18] was 12.6%. The viability, T/C [19] was 30.3%, the viability, T/C [20] was 30.1% and the viability, T/C [21] was 35.3%. The viability, T/C [22] was 24.7%, the viability, T/C [23] was 15.5% and the viability, T/C [24] was 6.96%. It also gave a viability, T/C [25] of 11.1%, a viability, T/C [26] of 10.8% and a viability, T/C [27] of 11.4%. For the same compound, the viability, T/C [28] was 10.5%, the viability, T/C [29] was 6% and the viability, T/C [30] was 3.59%. It also gave a viability, T/C [31] of 5.39%, a viability, T/C [32] of 4.74% and a viability, T/C [33] of 4.07%. The viability, T/C [34] was 4.44%, the viability, T/C [35] was 2.79% and the viability, T/C [36] was 1.58%.
Compound `CCN1CCN(Cc2ccc(Nc3ncc(F)c(-c4cc(F)c5nc(C)n(C(C)C)c5c4)n3)nc2)CC1` + COc1c(OCCCN2CCOCC2)ccc2c3n(c(=NC(=O)c4cnc(N)nc4)nc12)CCN3 has an IC50 (second compound 0.00316 µM) of over 1000 nM, an IC50 (second compound 0.01 µM) of 409 nM and an IC50 (second compound 0.0316 µM) of 55 nM. It also gave an IC50 (second compound 0.1 µM) of under 3.16 nM, an IC50 (second compound 0.316 µM) of under 3.16 nM and an IC50 (second compound 1 µM) of under 3.16 nM. It also gave a viability, T/C (second compound 0.00316 µM, first compound 0.00316 µM) of 95.2%, a viability, T/C (second compound 0.00316 µM, first compound 0.01 µM) of 77.9% and a viability, T/C [1] of 103%. It also gave a viability, T/C [2] of 82.6%, a viability, T/C [3] of 77.6% and a viability, T/C [4] of 60.5%. For the same compound, the viability, T/C (second compound 0.01 µM, first compound 0.00316 µM) was 87.8%, the viability, T/C (second compound 0.01 µM, first compound 0.01 µM) was 89.9% and the viability, T/C [7] was 85.2%. For the same compound, the viability, T/C [8] was 71.1%, the viability, T/C [9] was 52.9% and the viability, T/C [10] was 41.6%. It also gave a viability, T/C (second compound 0.0316 µM, first compound 0.00316 µM) of 64.8%, a viability, T/C (second compound 0.0316 µM, first compound 0.01 µM) of 67.6% and a viability, T/C [13] of 52.7%. For the same compound, the viability, T/C [14] was 45.7%, the viability, T/C [15] was 26.7% and the viability, T/C [16] was 20.6%. For the same compound, the viability, T/C (second compound 0.1 µM, first compound 0.00316 µM) was 28.9%, the viability, T/C (second compound 0.1 µM, first compound 0.01 µM) was 29.3% and the viability, T/C [19] was 22.7%. For the same compound, the viability, T/C [20] was 15.6%, the viability, T/C [21] was 12.2% and the viability, T/C [22] was 13.9%. For the same compound, the viability, T/C (second compound 0.316 µM, first compound 0.00316 µM) was 11.5%, the viability, T/C (second compound 0.316 µM, first compound 0.01 µM) was 9.97% and the viability, T/C [25] was 8.87%. The viability, T/C [26] was 7.84%, the viability, T/C [27] was 8.06% and the viability, T/C [28] was 8.7%. It also gave a viability, T/C (second compound 1 µM, first compound 0.00316 µM) of 4.05%, a viability, T/C (second compound 1 µM, first compound 0.01 µM) of 5.98% and a viability, T/C [31] of 4.02%. The viability, T/C [32] was 4.36%, the viability, T/C [33] was 4.5% and the viability, T/C [34] was 5.49%.
`Cn1ncc(Cl)c1-c1cc(C(=O)NC(CN)Cc2cccc(F)c2)sc1Cl` (stereo unspecified) + COc1c(OCCCN2CCOCC2)ccc2c3n(c(=NC(=O)c4cnc(N)nc4)nc12)CCN3 gave an IC50 (second compound 0.00316 µM) of 728 nM, an IC50 (second compound 0.01 µM) of 624 nM and an IC50 (second compound 0.0316 µM) of 178 nM. The IC50 (second compound 0.1 µM) was under 31.6 nM, the IC50 (second compound 0.316 µM) was under 31.6 nM and the IC50 (second compound 1 µM) was under 31.6 nM. It also gave a viability, T/C [1] of 88.5%, a viability, T/C [2] of 73.7% and a viability, T/C [3] of 63.2%. For the same compound, the viability, T/C [4] was 45.5%, the viability, T/C [5] was 26.9% and the viability, T/C [6] was 6.73%. For the same compound, the viability, T/C [7] was 77.8%, the viability, T/C [8] was 69.8% and the viability, T/C [9] was 62%. The viability, T/C [10] was 42.7%, the viability, T/C [11] was 19.6% and the viability, T/C [12] was 5.83%. It also gave a viability, T/C [13] of 60.7%, a viability, T/C [14] of 54.4% and a viability, T/C [15] of 45.2%. For the same compound, the viability, T/C [16] was 29.4%, the viability, T/C [17] was 13% and the viability, T/C [18] was 3.13%. The viability, T/C [19] was 27.6%, the viability, T/C [20] was 27.3% and the viability, T/C [21] was 19.7%. For the same compound, the viability, T/C [22] was 15.4%, the viability, T/C [23] was 7.63% and the viability, T/C [24] was 0.88%. For the same compound, the viability, T/C [25] was 8.42%, the viability, T/C [26] was 7.12% and the viability, T/C [27] was 8.39%. The viability, T/C [28] was 7.12%, the viability, T/C [29] was 4.22% and the viability, T/C [30] was 0.34%. The viability, T/C [31] was 3.34%, the viability, T/C [32] was 4.22% and the viability, T/C [33] was 3.37%. It also gave a viability, T/C [34] of 4.04%, a viability, T/C [35] of 1.54% and a viability, T/C [36] of 1.32%.
